Measured values as given in patent US7303915B2, “In vitro-differentiated retinal ganglion cells and method for producing same” (Wisconsin Alumni Research Foundation, priority 2005, dated 2007).
Residues, ends and D or L forms follow the SMILES beside them. *: point of attachment. Cbz = O=C(OCc1ccccc1)*; CH2F = FC*

Key:
RGC-5 cells [1] = assay: Morphological differentiation and neurite count of RGC-5 cells; details: for morphological evidence of differentiation: apoptosis inducer; for rounding of the cell soma: specific kinase inhibitors on RGC-5 cells
Experimental: Cell culture: RGC-5 cells were cultured in Dulbecco's modification of Eagle's medium (DMEM; Mediatech, Inc.; Herndon, Calif.) containing 1 mg/L glucose with L-glutamine, supplemented with 10% FBS, 100 U/ml penicillin and 100 μg/ml streptomycin. Cells were incubated at 37° C. in humidified 5% CO2.
Pharmacological agents were used to induce or to inhibit various signaling pathways within RGC-5 cells. Cells were replated on 12 mm round cover glass in 24 well plates 24 hours prior to pharmacological treatment. Drugs were added for varying lengths of time and then processed for immunocytochemistry.
Cell morphology: Photomicrographs were taken at 400× total magnification with Nomarski optics, digitized as above, and stored as JPEG images. The pictures were then batch analyzed off-line to assess the development of neurites. A total of fifty cells from each condition were analyzed. The fifty cells assessed for neurite outgrowth in each condition were selected to include all cells in each photomicrograph for which the neurite tree was visible, and continuing with a new photomicrograph until fifty cells were analyzed. Projections from the cell were classified as neurites if they were equal or greater in length than the cell soma. Only branches arising from the soma were counted. The neurite counts were expressed as mean±S.E.M.

RGC-5 cells [2] = assay: Nuclear condensation changes of apoptosis (Hoechst 33258); type: cell-based, rat; details: twenty-four hour incubation, Hoechst 33258 10 μg/ml for thirty minutes
RGC-5 cells [3] = assay: Cell number by MTT assay; type: cell-based, rat
Experimental: Cell number: Cells were plated in 96 well plates and 3-(4,5-dimethylthiazol-2-yl)-2,5-diphenyltetrazolium bromide (MTT) added immediately to a final concentration of 500 μg/ml. Plates were incubated for 5 hours at 37° C. The media was then replaced with 200 μl of DMSO, which was pipetted up and down to dissolve the formazan crystals, and the plate incubated at 37° C. for 5 minutes. Absorbance was measured at 550 nm on a THERMOmax™ microplate reader (Molecular Devices; Sunnyvale, Calif.). All readings were normalized to a standard curve derived from known numbers of cells.

NMDA-R1 = assay: Immunocytochemistry for NMDA-R1 in RGC-5 cells; type: cell-based, rat; details: differentiated vs undifferentiated cells, twenty-four hours
Experimental: (§1) Immunocytochemistry: Differentiated RGC-5 cells plated on coverslips were fixed with 4% paraformaldehyde (Fisher) in PBS, pH 7.2 for 20 minutes at room temperature, rapidly rinsed with Tris-buffered saline (TBS; 100 mM Tris, pH 7.6, 0.9% NaCl) 3 times for a few seconds each and 2 times for 5 minutes each, and blocked with 5% normal goat serum (BioWhittaker) in TBS for 30 minutes at room temperature. The NMDA-R1 receptor was detected by incubating with purified mouse monoclonal anti-NMDA-R1 antibody (BD Biosciences; San Jose, Calif.; clone 54.1) at 2.5 μg/ml overnight at room temperature, followed by Alexa Fluor™ 594 goat anti-mouse IgG at 10 μg/ml in blocking buffer at room temperature for 90 minutes. Alexa Fluor™ 594 fluorescence was detected with a Texas Red filter set (excitation 560±20 nm, dichroic 595 nm long-pass, emission 630±30 nm). Thy-1 was detected after fixing and blocking by incubating with rabbit anti-Thy-1 polyclonal IgG (Santa Cruz Biotechnology; Santa Cruz, Calif.) at 20 μg/ml overnight at 4° C., followed by Alexa Fluor 488 goat anti-rabbit IgG at 4 μg/ml at room temperature for 60 minutes. Alexa Fluor 488 fluorescence was detected with a FITC filter set (excitation 470±20 nm, dichroic 505 nm long-pass, emission 540±20 nm) filter set. […]

Thy-1 [4] = assay: Immunocytochemistry for Thy-1 in RGC-5 cells; type: cell-based, rat; details: differentiated vs undifferentiated cells, twenty-four hours
Experimental: as §1

RGC-5 cells [5] = assay: Whole-cell voltage-clamp recording of RGC-5 cells; type: cell-based, rat; details: for conductance of outward currents at +90 mV: after leak subtraction
Experimental: No series resistance compensation was used. Currents were low-pass filtered at 1-5 kHz with a four-pole Bessel filter, and digitized at a rate no less than twice the filter frequency. […] Analysis and curve fitting was also performed using AxoGraph.
Voltage-gated currents were studied by applying 10 ms voltage steps from −100 to +90 mV in 10 mV increments, from a holding potential of −60 mV. This protocol was run 2-6 times on each cell and the currents evoked at each potential were averaged. Passive leak and capacitive currents were removed by scaling the average current evoked at −70 mV, and subtracting the result from the average current obtained at each voltage. Current amplitudes were measured at steady-state (i.e., near the end of the voltage step), and the slope conductance was computed as the difference between successive amplitudes, divided by the 10 mV step increment.

[6] = system: focal adhesion kinase (FAK) S722; assay: Kinetworks KPSS 2.1 phosphorylation screen, FAK S722; type: cell-based, rat; details: 1 μM for 5 minutes
Experimental: (§2) Cells were washed with ice-cold PBS, scraped, and centrifuged at 3,200 g for five minutes. The pellets were resuspended in lysis buffer (Kinexus Bioinformatics; Vancouver, BC, Canada) supplemented with 5 mM pepstatin A (Roche; Indianapolis, Ind.), and Complete mini protease inhibitor cocktail (Roche). The suspensions were sonicated on ice for two 15-second bursts, followed by centrifugation at 100,000 g for 30 minutes at 4° C. […] These were then transferred to nitrocellulose membranes. Using a twenty-lane multiblotter (BioRad; Hercules, Calif.), the membranes were incubated with different mixtures of up to three antibodies per lane that react with a distinct subset of at least thirty-seven known phosphorylated sites of cell signaling proteins of distinct molecular masses. After further incubation with a mixture of relevant HRP conjugated secondary antibodies (Santa Cruz Biotechnology), the blots were developed using ECL Plus reagent (Amersham Pharmacia; Piscataway, N.J.) and signals quantified using Quantity One software (BioRad). Detailed information and protocols of the Kinetworks™ analysis can be found at the Kinexus Bioinformatics Corporations website.

c-Kit Y703 = assay: Kinetworks KPSS 2.1 phosphorylation screen, c-Kit Y703; type: cell-based, rat; details: 1 μM for 5 minutes
Experimental: (§3) Analysis of kinasephosphorylation targets: Total cell lysates were prepared as described in Zhang H, et al., J Biol Chem 276:6905-6908 (2001). Cells were washed with ice-cold PBS, scraped, and centrifuged at 3,200 g for five minutes. The pellets were resuspended in lysis buffer (Kinexus Bioinformatics; Vancouver, BC, Canada) supplemented with 5 mM pepstatin A (Roche; Indianapolis, Ind.), and Complete mini protease inhibitor cocktail (Roche). The suspensions were sonicated on ice for two 15-second bursts, followed by centrifugation at 100,000 g for 30 minutes at 4° C. […] Bradford M M, Anal Biochem 72:248-254 (1976). These were then transferred to nitrocellulose membranes. Using a twenty-lane multiblotter (BioRad; Hercules, Calif.), the membranes were incubated with different mixtures of up to three antibodies per lane that react with a distinct subset of at least thirty-seven known phosphorylated sites of cell signaling proteins of distinct molecular masses. After further incubation with a mixture of relevant HRP conjugated secondary antibodies (Santa Cruz Biotechnology), the blots were developed using ECL Plus reagent (Amersham Pharmacia; Piscataway, N.J.) and signals quantified using Quantity One software (BioRad). Detailed information and protocols of the Kinetworks™ analysis can be found at the Kinexus Bioinformatics Corporations website.

ERK1 T202/Y204 = assay: Kinetworks KPSS 2.1 phosphorylation screen, ERK1 T202/Y204; type: cell-based, rat; details: 1 μM for 5 minutes
Experimental: as §3

CDK1 T14/Y15 = assay: Kinetworks KPSS 2.1 phosphorylation screen, CDK1 T14/Y15; type: cell-based, rat; details: 1 μM for 5 minutes
Experimental: as §3

MEK1 S298 = assay: Kinetworks KPSS 2.1 phosphorylation screen, MEK1 S298; type: cell-based, rat; details: 1 μM for 5 minutes
Experimental: as §2

PKR T451 = assay: Kinetworks KPSS 2.1 phosphorylation screen, PKR T451; type: cell-based, rat; details: 1 μM for 5 minutes
Experimental: as §3

Thy-1 [7] = assay: Immunoblot analysis of Thy-1 in RGC-5 cells; details: 316 nM for three days
Experimental: (§4) After transfer, the membrane was blocked with 5% non-fat milk in TBS (pH 8.0) for 30-60 minutes, and then probed with primary antibodies to RGC marker proteins in blocking buffer. Antibodies used included purified rabbit polyclonal anti-microtubule-associated protein 2 (1:2000; Chemicon; Temecula, Calif.), polyclonal rabbit anti-Thy-1 (1:100; Santa Cruz Biotechnology), and polyclonal rabbit anti-actin (1:1000; Sigma). Blots were rinsed 3 times with TBS containing 0.05% Tween-20 (Fisher Scientific), then washed 5 times for 10 minutes each at room temperature on an orbital shaker. Secondary antibodies used were purified HRP-conjugated goat anti-rabbit IgG and purified HRP-conjugated goat anti-mouse IgG (1:5000; Jackson Immunoresearch Laboratories; West Grove, Pa.), and were incubated for 1 hour at room temperature, followed by 3 rinses and five 10 minute washes with TBS containing Tween-20 at room temperature on an orbital shaker. […] The blots were then exposed to Kodak BioMax XAR film (Eastman Kodak Company; Rochester, N.Y.) and developed. The films were scanned at 1600 dpi and band density was determined by comparing total intensity in an area containing the band of interest to the intensity of an equal size area of background using NIH ImageJ software. Band density readings are presented with respect to the density of the band from the control, untreated cell condition.

[8] = system: microtubule-associated protein 2 (MAP-2); assay: Immunoblot analysis of MAP-2 in RGC-5 cells; details: 316 nM for three days
Experimental: as §4

Rho-Kinase = details: cited from earlier work
PKA = details: read-out: Ki protein kinase A; cited from earlier work
[9] = 1 hr [24 hr], cells with large conductance

COC(=O)C[C@H](NC(=O)[C@H](C)NC(=O)[C@@H](NC(=O)OCc1ccccc1)C(C)C)C(=O)CF [ZVAD-fmk] (Cbz-Val-Ala-Asp(OMe)-CH2F)
effect of pretreatment on differentiation with SS (RGC-5 cells [1]): did not inhibit differentiation with SS
differentiation of undifferentiated cells by the agent alone (RGC-5 cells [1]; without staurosporine): did not differentiate

C[C@H](CCC(=O)O)C[C@H](C)C[C@H](C)C(=O)/C=C(\O)[C@H](C)C[C@H](C)C/C=C/[C@@H](C)[C@@H](O)[C@@H](C)[C@@H](O)C[C@@H]1CC[C@@](C)([C@H]2CC[C@@](C)([C@@H](C)O)O2)O1 [ionomycin]
nuclear condensation (Hoechst 33258) (RGC-5 cells [2]): induced nuclear condensation
morphological evidence of differentiation (RGC-5 cells [1]; 20 μM): None resulted in morphological evidence of differentiation

CN[C@@H]1C[C@H]2O[C@@](C)([C@@H]1OC)n1c3ccccc3c3c4c(c5c6ccccc6n2c5c31)C(=O)NC4 [staurosporine]
cell number (MTT) (RGC-5 cells [3]; 1 hour after culture): 7133±266 cells
cell number (MTT) (RGC-5 cells [3]; twenty-four hours): 10,094±1023 cells
NMDA-R1 labeling (NMDA-R1): visibly more intense staining
Thy-1 labeling (Thy-1 [4]): visibly more intense staining
conductance of outward currents at +90 mV (RGC-5 cells [5]; 1 hr [24 hr], untreated 3.1±0.5): 14±5 nS
apparent half-activation voltage (Boltzmann fit) (RGC-5 cells [5]; [9]): +48 mV
maximal conductance (Boltzmann fit) (RGC-5 cells [5]; [9]): 26 nS
apparent capacitance (RGC-5 cells [5]; 1 hr [24 hr], untreated 28±2): 31±5 pF
resting potential (RGC-5 cells [5]; 1 hr [24 hr], untreated −34±0.5): −27±9 mV
resting potential (RGC-5 cells [5]; 1 hr [48 hr]): −9±6 mV
conductance of outward currents at +90 mV (RGC-5 cells [5]; 1 hr [48 hr]): 7±3 nS
input resistance (RGC-5 cells [5]; 1 hr [48 hr], n=4): 322±89 MΩ
apparent capacitance (RGC-5 cells [5]; 1 hr [48 hr], p<0.05): 44±3 pF
apparent capacitance (RGC-5 cells [5]; 22 hr [2 hr]): 38±3
resting potential (RGC-5 cells [5]; 22 hr [2 hr]): −11±3
conductance of outward currents at +90 mV (RGC-5 cells [5]; 22 hr [2 hr]): 5±3 nS
nuclear condensation (Hoechst 33258) (RGC-5 cells [2]): the same as controls, with finely granular nuclei that were not compacted
increase in phosphorylation of S722 of FAK vs sham-treated cells [6]: 90%
increase in phosphorylation of c-Kit Y703 vs control (c-Kit Y703): 43%
phosphorylation of ERK1 T202/Y204 vs control (ERK1 T202/Y204): not present in control
increase in phosphorylation of CDK1 T14/Y15 vs control (CDK1 T14/Y15): 64%
decrease in phosphorylation of MEK1 S298 vs control (MEK1 S298): 100%
decrease in phosphorylation of PKR T451 vs control (PKR T451): 100%
Thy-1 level (Western blot) (Thy-1 [7]): increased levels
MAP-2 level (Western blot) [8]: increased levels
differentiation-inducing activity in RGC-5 cells (RGC-5 cells [1]): strong differentiation inducer
neurite branching (RGC-5 cells [1]; 316 nM): minimally branched neurites
differentiation after short exposure (RGC-5 cells [1]; 1 μM for sixty seconds, then fresh media until twenty-four hours from treatment): definite morphological signs of differentiation
concentrations frequently toxic (necrotic cell body, blebbing and disruption of the neurite tree) (RGC-5 cells [1]; RGC-5 cells): higher than 1.78 μM
neurites per cell (RGC-5 cells [1]; RGC-5 cells, 1 μM, average±SEM from 50 cells): 2.94±0.11 neurites per cell
average and total process length (RGC-5 cells [1]; high (3.16 μM) concentration): average and total process length decreased somewhat
neurite branching (RGC-5 cells [1]; high (3.16 μM) concentration): neurite branching was greater
average and total neurite outgrowth (RGC-5 cells [1]; moderate (1 μM) concentration): promoted longer average and total neurite outgrowth

C/C=C(/C)C(=O)O[C@H]1C(C)=C2[C@H]([C@@H]1OC(=O)CCCCCCC)[C@@](C)(OC(C)=O)C[C@H](OC(=O)CCC)[C@@]1(O)[C@H]2OC(=O)[C@@]1(C)O [thapsigargin, Thapsigargin]
cell shape (RGC-5 cells [1]; 10 μM): did cause cells to become more spindle-shaped
morphological evidence of differentiation (RGC-5 cells [1]; 10 μM): None resulted in morphological evidence of differentiation

C=C(C)[C@H]1Cc2c(ccc3c2O[C@@H]2COc4cc(OC)c(OC)cc4[C@@H]2C3=O)O1 [rotenone]
morphological evidence of differentiation (RGC-5 cells [1]; 10 μM): None resulted in morphological evidence of differentiation

Cc1cncc2cccc(S(=O)(=O)N3CCCNC[C@@H]3C)c12 [H-1152]
Ki (Rho-Kinase): 1.6 nM
differentiation-inducing activity in RGC-5 cells (RGC-5 cells [1]): weak differentiation inducers
neurites expressed (RGC-5 cells [1]; RGC-5 cells, 1 μM): 1.06±0.15 neurites
rounding of the cell soma (RGC-5 cells [1]): did not produce rounding of the cell soma

O=S(=O)(NCCNC/C=C/c1ccc(Br)cc1)c1cccc2cnccc12 [H-89]
Ki (PKA): 50 nM
differentiation-inducing activity in RGC-5 cells (RGC-5 cells [1]): weak differentiation inducers
neurites expressed (RGC-5 cells [1]; RGC-5 cells, 56.2 μM): 1.80±0.16 neurites
rounding of the cell soma (RGC-5 cells [1]): did not produce rounding of the cell soma
